Measured values from ChEMBL document CHEMBL1201862, “PubChem BioAssay data set” (2004).
Where “and” joins values, the source holds several entries; their conditions need not be identical. Identical values can stand only once.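 The compound was tested at five concentrations on cells cultured in 96-well plates, with a 48-hour exposure period. The concentration for 50% growth inhibition is given as GI50.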 Calls of active or inactive are those of the source. No stated cut-off is given here; in the data, active = GI50 up to about 1.1 µM and inactive = higher.

What was measured:
Experiment in all cases: NCI-60 cell line screen, 48 h
[1] = tested on: U-251
[2] = tested on: SF-295
[3] = tested on: SN12C
[4] = tested on: UACC-62
[5] = tested on: MCF7
[6] = tested on: MDA-MB-231
[7] = tested on: SF-539
[8] = tested on: SNB-75
[9] = tested on: HCT-116
[10] = tested on: COLO 205
[11] = tested on: IGROV-1
[12] = tested on: OVCAR-5
[13] = tested on: UO-31
[14] = tested on: MDA-N
[15] = tested on: NCI-H226
[16] = tested on: SK-MEL-28
[17] = tested on: OVCAR-4
[18] = tested on: A498
[19] = tested on: BT-549
[20] = tested on: MDA-MB-435

Measured: GI50

Cn1c(=O)oc2cc(C(=O)CN3CCN(Cc4ccc5c(c4)OCO5)CC3)c(Cl)cc21
inactive: [1] > 100 µM | [2] > 100 µM | [3] > 100 µM | [4] > 100 µM | [5] > 100 µM | [6] > 100 µM | [7] > 100 µM | [8] > 100 µM | [9] > 100 µM | [10] > 100 µM | [11] > 100 µM | [12] > 100 µM | [13] 94 µM | [14] > 100 µM

Cn1c(=O)n2n(c1=O)[C@@H](c1ccccc1)[C@H]2c1ccccc1
inactive: [15] > 100 µM | [1] > 100 µM | [2] > 100 µM | [3] > 100 µM | [4] > 100 µM | [5] > 100 µM | [6] > 100 µM | [16] > 100 µM | [7] > 100 µM | [8] 31 µM | [9] > 100 µM | [10] > 100 µM | [17] > 100 µM | [18] > 100 µM | [11] > 100 µM | [12] > 100 µM | [13] > 100 µM | [19] > 100 µM

CCOP(=O)(OCC)/C(C#N)=C/c1cnc[nH]1
inactive: [15] > 100 µM | [1] > 100 µM | [2] > 100 µM | [20] > 100 µM | [3] > 100 µM | [4] > 100 µM | [5] > 100 µM | [6] > 100 µM | [16] > 100 µM | [7] > 100 µM | [8] > 100 µM | [9] > 100 µM | [10] > 100 µM | [17] > 100 µM | [18] > 100 µM | [11] > 100 µM | [12] > 100 µM | [13] > 100 µM | [19] > 100 µM

O=c1ccn([C@@H]2C[C@@H]2CO)c(=O)[nH]1
inactive: [15] > 100 µM | [1] > 100 µM | [20] > 100 µM | [3] > 100 µM | [4] > 100 µM | [5] > 100 µM | [16] > 100 µM | [7] > 100 µM | [8] > 100 µM | [9] > 100 µM | [10] > 100 µM | [17] > 100 µM | [18] > 100 µM | [11] > 100 µM | [12] > 100 µM | [13] > 100 µM | [14] > 100 µM | [19] > 100 µM

Cc1c(Cl)ccc2[s+]snc12
inactive: [15] 68.4 µM | [1] 25.3 µM | [2] > 100 µM | [3] 24.3 µM | [4] 22.3 µM | [16] 29.4 µM | [7] 21.4 µM | [8] 67.6 µM | [9] 22.7 µM | [10] > 100 µM | [17] 42.3 µM | [18] 68.2 µM | [11] 48.8 µM | [12] > 100 µM | [13] 23.9 µM

CN(C)CCOC1(Cc2ccc(F)cc2)CCC(C(C)(C)C)CC1 (stereo unspecified)
inactive: [15] 9.38 µM and 10.5 µM | [1] 5.28 µM and 6.25 µM | [2] 5.75 µM and 6.38 µM | [20] 3.51 µM and 4.54 µM | [3] 11.3 µM and 12 µM | [4] 4.36 µM and 6.52 µM | [5] 6.04 µM and 5.24 µM | [6] 9.62 µM and 10.5 µM | [16] 6.05 µM and 4.17 µM | [9] 4.39 µM and 4.75 µM | [10] 2.03 µM and 2.15 µM | [18] 12.6 µM and 14.7 µM | [11] 11.1 µM and 11.5 µM | [12] 7.59 µM and 7.85 µM | [13] 6.12 µM and 4.81 µM | [14] 3.2 µM and 5.93 µM

O=C1c2ccccc2-n2c1nc1ccc([N+](=O)[O-])cc1c2=O
inactive: [15] 25.6 µM | [1] > 100 µM | [2] 24.1 µM | [20] > 10 µM | [3] 49.2 µM | [4] 44.2 µM | [5] 11.7 µM | [6] 45.7 µM | [16] 55.1 µM | [7] > 100 µM | [9] 27.1 µM | [10] > 100 µM | [17] > 10 µM | [18] 5.62 µM | [11] 53.7 µM | [12] > 100 µM | [13] 42.9 µM | [19] > 100 µM

CC1(C)[C@@H](Cn2cnc3c(Cl)nc(N)nc32)CC[C@@]1(C)CO
inactive: [15] 12.7 µM | [1] > 100 µM | [2] > 100 µM | [20] 26.4 µM | [3] 57.3 µM | [4] 20 µM | [5] > 100 µM | [6] 21.3 µM | [16] 43.5 µM | [7] > 100 µM | [8] > 100 µM | [9] 34.3 µM | [10] 51.5 µM | [17] > 100 µM | [18] > 100 µM | [12] > 100 µM | [13] 3.74 µM | [14] 32.4 µM
